IC50 data for 29 molecules are collected here from patent US20260217677A1, “ORGANIC COMPOUNDS AS NLRP3 INHIBITORS” (KODIAK SCIENCES, INC., priority 2023, published 2026).

Each structure is given as a SMILES string.

The test system of one assay is IL-1β release in U937 cells after NLRP3 activation. In words: IL-1β release inhibition in U937 cells (MSD V-Plex). The settings on record: Homo sapiens, U-937, read-out: IL-1β IC50, Table 3; PMA-differentiated U937 cells, 1 μg/mL LPS 3 h, compound 30 min, 10 mM nigericin 1 h.
The term IC50 denotes the concentration that inhibits the measured activity by half. On to `Cc1cc(N[C@@H]2CCCN(CC(=O)N3CCC(CO)CC3)C2)nnc1-c1ccc(C(F)(F)F)cc1O` [Example 58, (R)-2-(3-((6-(2-Hydroxy-4-(trifluoromethyl)phenyl)-5-methylpyridazin-3-yl)amino)piperidin-1-yl)-1-(4-(hydroxymethyl)piperidin-1-yl)ethan-1-one], for which the concentration for half-maximal inhibition (IC50) lay within 5 to 50 nM.
The same measure, in the same setting: to `Cc1cc(N[C@@H]2CCCN(CC(=O)N3CCC(C)(O)CC3)C2)nnc1-c1ccc(C(F)(F)F)cc1O` [Example 55, (R)-2-(3-((6-(2-Hydroxy-4-(trifluoromethyl)phenyl)-5-methylpyridazin-3-yl)amino)piperidin-1-yl)-1-(4-hydroxy-4-methylpiperidin-1-yl)ethan-1-one] belongs under 5 nM; to `Cc1cc(N[C@@H]2CCCN(CC(=O)NC3CC(O)C3)C2)nnc1-c1ccc(C(F)(F)F)cc1O` (stereo partly drawn) [Compound 10, 2-((R)-3-((6-(2-Hydroxy-4-(trifluoromethyl)phenyl)-5-methylpyridazin-3-yl)amino)piperidin-1-yl)-N-((1r,3R)-3-hydroxycyclobutyl)acetamide], 5 to 50 nM; to `Cc1c(N[C@@H]2CCCN(CC(=O)N3CCC(O)CC3)C2)nnc(-c2ccc3sccc3c2O)c1C` [Example 50, (R)-2-(3-((6-(4-Hydroxybenzo[b]thiophen-5-yl)-4,5-dimethylpyridazin-3-yl)amino)piperidin-1-yl)-1-(4-hydroxypiperidin-1-yl)ethan-1-one], under 5 nM.
Still for that read-out and setting: the same measure for `CN1Cc2c(N[C@@H]3CCCN(CC(=O)N4CCC(O)CC4)C3)nnc(-c3ccc(C(F)(F)F)cc3O)c2C1` [Example 60, (R)-2-(3-((4-(2-Hydroxy-4-(trifluoromethyl)phenyl)-6-methyl-6,7-dihydro-5H-pyrrolo[3,4-d]pyridazin-1-yl)amino)piperidin-1-yl)-1-(4-hydroxypiperidin-1-yl)ethan-1-one]: 50 to 500 nM; for `Cc1cc(N[C@@H]2CCCN(CC(=O)N3CC[C@H](O)C3)C2)nnc1-c1ccc(C(F)(F)F)cc1O` [Compound 11, 2-((R)-3-((6-(2-Hydroxy-4-(trifluoromethyl)phenyl)-5-methylpyridazin-3-yl)amino)piperidin-1-yl)-1-((S)-3-hydroxypyrrolidin-1-yl)ethan-1-one]: under 5 nM; for `Cc1cc(N[C@@H]2CCCN(CC(=O)N3CCC(O)C3)C2)nnc1-c1ccc(C(F)(F)F)cc1O` (stereo partly drawn) [Compound 1, 2-((R)-3-((6-(2-Hydroxy-4-(trifluoromethyl)phenyl)-5-methylpyridazin-3-yl)amino)piperidin-1-yl)-1-(3-hydroxypyrrolidin-1-yl)ethan-1-one]: 5 to 50 nM.
For `Cc1c(N[C@@H]2CCCN(CC3CC(O)C3)C2)nnc(-c2ccc3sccc3c2O)c1C` (stereo partly drawn) [Example 74, 5-(6-(((R)-1-(((1r,3R)-3-Hydroxycyclobutyl)methyl)piperidin-3-yl)amino)-4,5-dimethylpyridazin-3-yl)benzo[b]thiophen-4-ol], the IC50 was under 5 nM.
Still for that read-out and setting: to `Oc1cc(C(F)(F)F)ccc1-c1nnc(N[C@@H]2CCCN(CCN3CC[C@H](O)C3)C2)c2c1COC2` [Example 35, (S)-1-(2-((R)-3-((4-(2-Hydroxy-4-(trifluoromethyl)phenyl)-5,7-dihydrofuro[3,4-d]pyridazin-1-yl)amino)piperidin-1-yl)ethyl)pyrrolidin-3-ol] belongs 5 to 50 nM; to `O=C(CN1CCC[C@@H](Nc2nnc(-c3ccc(C(F)(F)F)cc3O)c3c2COC3)C1)N1CCC2(CC1)CC(O)C2` [Compound 24, (R)-2-(3-((4-(2-Hydroxy-4-(trifluoromethyl)phenyl)-5,7-dihydrofuro[3,4-d]pyridazin-1-yl)amino)piperidin-1-yl)-1-(2-hydroxy-7-azaspiro[3.5]nonan-7-yl)ethan-1-one], 5 to 50 nM; to `Cc1cc(N[C@@H]2CCCN(C(=O)C34CC(O)(C3)C4)C2)nnc1-c1ccc(C(F)(F)F)cc1O` [Example 63, (R)-(3-((6-(2-Hydroxy-4-(trifluoromethyl)phenyl)-5-methylpyridazin-3-yl)amino)piperidin-1-yl) (3-hydroxybicyclo[1.1.1]pentan-1-yl)methanone], 5 to 50 nM.
With `O=C(CN1CCC[C@@H](Nc2nnc(-c3ccc(C(F)(F)F)cc3O)c3c2COC3)C1)N1C[C@H](O)[C@@H](F)C1` [Example 28, 1-((3S,4S)-3-Fluoro-4-hydroxypyrrolidin-1-yl)-2-((R)-3-((4-(2-hydroxy-4-(trifluoromethyl)phenyl)-5,7-dihydrofuro[3,4-d]pyridazin-1-yl)amino)piperidin-1-yl)ethan-1-one], the IC50 was 5 to 50 nM.
Still for that read-out and setting: to `Cc1cc(N[C@@H]2CCCN(CCN3CC[C@H](O)C3)C2)nnc1-c1ccc(C(F)(F)F)cc1O` [Compound 4, (S)-1-(2-((R)-3-((6-(2-Hydroxy-4-(trifluoromethyl)phenyl)-5-methylpyridazin-3-yl)amino)piperidin-1-yl)ethyl)pyrrolidin-3-ol] belongs over 500 nM; to `Cc1cc(N[C@@H]2CCCN(CC(=O)N3CC[C@@H](O)C3)C2)nnc1-c1ccc(C(F)(F)F)cc1O` [Compound 12, 2-((R)-3-((6-(2-Hydroxy-4-(trifluoromethyl)phenyl)-5-methylpyridazin-3-yl)amino)piperidin-1-yl)-1-((R)-3-hydroxypyrrolidin-1-yl)ethan-1-one], under 5 nM.
The same measure, in the same setting: the same measure for `O=C(CN1CCC[C@@H](Nc2nnc(-c3ccc(C(F)(F)F)cc3O)c3c2CNC3)C1)N1CCC(O)CC1` [Example 57, (R)-2-(3-((4-(2-Hydroxy-4-(trifluoromethyl)phenyl)-6,7-dihydro-5H-pyrrolo[3,4-d]pyridazin-1-yl)amino)piperidin-1-yl)-1-(4-hydroxypiperidin-1-yl)ethan-1-one]: 50 to 500 nM.
Consider `Cc1cc(N[C@@H]2CCCN(CCC3CCC(O)CC3)C2)nnc1-c1ccc(C(F)(F)F)cc1O` (single isomer, unassigned) [Example 72], for which the IC50 was under 5 nM.
As for `Cc1cc(N[C@@H]2CCCN(C3CCC(O)CC3)C2)nnc1-c1ccc(C(F)(F)F)cc1O` (single isomer, unassigned) [Example 53], the IC50 is under 5 nM.
Same read-out and setting: the same measure for `Cc1cc(N[C@@H]2CCCN(CC(=O)N3CC4(CCC(O)CC4)C3)C2)nnc1-c1ccc(C(F)(F)F)cc1O` [Compound 17, (R)-2-(3-((6-(2-Hydroxy-4-(trifluoromethyl)phenyl)-5-methylpyridazin-3-yl)amino)piperidin-1-yl)-1-(7-hydroxy-2-azaspiro[3.5]nonan-2-yl)ethan-1-one]: under 5 nM; for `Cc1cc(N[C@@H]2CCCN(CC(=O)N[C@H]3C[C@@H](O)C3)C2)nnc1-c1ccc(C(F)(F)F)cc1O` [Compound 14, 2-((R)-3-((6-(2-Hydroxy-4-(trifluoromethyl)phenyl)-5-methylpyridazin-3-yl)amino)piperidin-1-yl)-N-((1s,3S)-3-hydroxycyclobutyl)acetamide]: 5 to 50 nM.

Staying with this assay, now noted: Homo sapiens, U-937, read-out: IL-1β IC50, Table 4; PMA-differentiated U937 cells, 1 μg/mL LPS 3 h, compound 30 min, 10 mM nigericin 1 h.
For `Cc1cc(N[C@@H]2CCCN([C@H]3C[C@H](N)C3)C2)nnc1-c1ccc(C(F)(F)F)cc1O` (relative stereo) [Example 90, 2-(6-(((R)-1-((1r*,3R*)-3-Aminocyclobutyl)piperidin-3-yl)amino)-4-methylpyridazin-3-yl)-5-(trifluoromethyl)phenol], the IC50 is 5 to 50 nM.
Take `Cc1cc(N[C@@H]2CCCN(CC(=O)N3CCNCC3)C2)nnc1-c1ccc(C(F)(F)F)cc1O` [Example 103, (R)-2-(3-((6-(2-Hydroxy-4-(trifluoromethyl)phenyl)-5-methylpyridazin-3-yl)amino)piperidin-1-yl)-1-(piperazin-1-yl)ethan-1-one]: the IC50 lay within 5 to 50 nM.
On the same count and under the same terms, the same measure for `Cc1cc(N[C@@H]2CCCN(C3CNC3)C2)nnc1-c1ccc2sccc2c1O` [Example 114, (R)-5-(6-((1-(azetidin-3-yl)piperidin-3-yl)amino)-4-methylpyridazin-3-yl)benzo[b]thiophen-4-ol]: under 5 nM.
With `Oc1cc(C(F)(F)F)ccc1-c1nnc(N[C@@H]2CCCN(C3CNC3)C2)c2c1COC2` [Example 99, (R)-2-(4-((1-(Azetidin-3-yl)piperidin-3-yl)amino)-5,7-dihydrofuro[3,4-d]pyridazin-1-yl)-5-(trifluoromethyl)phenol], the IC50 was under 5 nM.
In the case of `Cc1cc(N[C@@H]2CCCN(CCN)C2)nnc1-c1ccc(C(F)(F)F)cc1O` [Example 78, (R)-2-(6-((1-(2-Aminoethyl)piperidin-3-yl)amino)-4-methylpyridazin-3-yl)-5-(trifluoromethyl)phenol], the IC50 was under 5 nM.
The same measure, in the same setting: to `NC1CC2(CCN(C(=O)CN3CCC[C@@H](Nc4nnc(-c5ccc(C(F)(F)F)cc5O)c5c4COC5)C3)CC2)C1` [Example 101, (R)-1-(2-Amino-7-azaspiro[3.5]nonan-7-yl)-2-(3-((4-(2-hydroxy-4-(trifluoromethyl)phenyl)-5,7-dihydrofuro[3,4-d]pyridazin-1-yl)amino)piperidin-1-yl)ethan-1-one] belongs 5 to 50 nM; to `Cc1cc(N[C@@H]2CCCN(CC(=O)N3CCN[C@@H](C)C3)C2)nnc1-c1ccc(C(F)(F)F)cc1O` [Example 111, 2-((R)-3-((6-(2-Hydroxy-4-(trifluoromethyl)phenyl)-5-methylpyridazin-3-yl)amino)piperidin-1-yl)-1-((S)-3-methylpiperazin-1-yl)ethan-1-one], 5 to 50 nM.
On the same count and under the same terms, the same measure for `Cc1cc(N[C@@H]2CCCN(CC(=O)N3CC(N)C3)C2)nnc1-c1ccc(C(F)(F)F)cc1O` [Example 77, (R)-1-(3-Aminoazetidin-1-yl)-2-(3-((6-(2-hydroxy-4-(trifluoromethyl)phenyl)-5-methylpyridazin-3-yl)amino)piperidin-1-yl)ethan-1-one]: 5 to 50 nM.

Staying with this assay, now noted: read-out: IL-1β IC50; Table 3; PMA-differentiated U937 cells, 1 μg/mL LPS 3 h, compound 30 min, 10 mM nigericin 1 h.
`Cc1cc(N[C@@H]2CCCN(C(=O)C3CCCC(O)C3)C2)nnc1-c1ccc(C(F)(F)F)cc1O` (single isomer, unassigned) [Example 70 Fraction B]: the IC50 is under 5 nM.
Still for that read-out and setting: the same measure for `Cc1cc(N[C@@H]2CCCN(C3CCN(C4CC(O)C4)CC3)C2)nnc1-c1ccc(C(F)(F)F)cc1O` (single isomer, unassigned) [Example 38B]: 5 to 50 nM.
